Measured values from ChEMBL document CHEMBL4371018, “Macrocyclic Trichothecene Mycotoxins from a Deadly Poisonous Mushroom, Podostroma cornu-damae” (J Nat Prod, 2019).

What was measured:
Type in all cases: functional, cell-based
[1] = tested on: HCC70; assay: Cytotoxicity against human HCC70 cells assessed as growth inhibition after 72 hrs by SRB assay
[2] = tested on: MDA-MB-231; assay: Cytotoxicity against human MDA-MB-231 cells assessed as growth inhibition after 72 hrs by SRB assay
[3] = tested on: MDA-MB-468; assay: Cytotoxicity against human MDA-MB-468 cells assessed as growth inhibition after 72 hrs by SRB assay
[4] = tested on: BT-549; assay: Cytotoxicity against human BT549 cells assessed as growth inhibition after 72 hrs by SRB assay

`CC1=C[C@H]2O[C@@H]3C[C@H]4OC(=O)/C=C\C=C\[C@H]([C@@H](C)O)OCC/C(C)=C/C(=O)OC[C@@]2(CC1)[C@]4(C)[C@]31CO1` [RORIDIN E] showed an IC50 ([1]; hcc70) of 0.02 nM, an IC50 ([2]; mda-mb-231) of 0.03 nM and an IC50 ([3]; mda-mb-468) of 0.05 nM. For the same compound, the IC50 ([4]; bt-549) was 0.02 nM.

`CC1=C[C@H]2O[C@@H]3C[C@H]4OC(=O)/C=C\C=C\[C@]5([C@H](C)O)OCC/C(=C\C(=O)OC[C@@]2(CC1)[C@]4(C)[C@@]31CO1)[C@H]5O` gave an IC50 ([1]; hcc70) of 2200 nM, an IC50 ([2]; mda-mb-231) of 2000 nM and an IC50 ([3]; mda-mb-468) of 3400 nM. The IC50 ([4]; bt-549) was 1800 nM.

For `COc1cc([C@@H]2c3cc4c(cc3[C@@H](O[C@@H]3O[C@@H]5CO[C@@H](C)O[C@H]5[C@H](O)[C@H]3O)[C@H]3COC(=O)[C@H]23)OCO4)cc(OC)c1O` [ETOPOSIDE], the IC50 ([1]; Homo sapiens, HCC70, 72 h) was 1800 nM, the IC50 ([2]; Homo sapiens, MDA-MB-231, 72 h) was 2300 nM and the IC50 ([3]; Homo sapiens, MDA-MB-468, 72 h) was 2100 nM. The IC50 ([4]; Homo sapiens, BT-549, 72 h) was 1800 nM.

With `COc1cccc2c1C(=O)c1c(O)c3c(c(O)c1C2=O)C[C@@](O)(C(=O)CO)C[C@@H]3O[C@H]1C[C@H](N)[C@H](O)[C@H](C)O1` [DOXORUBICIN] the IC50 ([1]; Homo sapiens, HCC70, 72 h) was 50 nM, the IC50 ([2]; Homo sapiens, MDA-MB-231, 72 h) was 80 nM and the IC50 ([3]; Homo sapiens, MDA-MB-468, 72 h) was 70 nM. The IC50 ([4]; Homo sapiens, BT-549, 72 h) was 10 nM.

Work on `CC1=C[C@H]2O[C@@H]3C[C@H]4OC(=O)/C=C\C=C\[C@]5([C@H](C)O)OCC/C(=C\C(=O)OC[C@@]2(CC1)[C@]4(C)[C@@]31CO1)[C@@H]5O` yielded an IC50 ([1]; hcc70) of 1 nM, an IC50 ([2]; mda-mb-231) of 0.4 nM and an IC50 ([3]; mda-mb-468) of 3 nM. It also gave an IC50 ([4]; bt-549) of 0.3 nM.

In the case of `CC1=C[C@H]2O[C@@H]3C[C@@H](OC(=O)/C=C\C=C\[C@@H](OCCC4=CC(=O)OC4)[C@@H](C)O)[C@](C)([C@@]2(CO)CC1)[C@@]31CO1`, the IC50 ([1]; hcc70) is reported as over 10000 nM, the IC50 ([2]; mda-mb-231) is reported as over 10000 nM and the IC50 ([3]; mda-mb-468) is reported as over 10000 nM. It also gave an IC50 ([4]; bt-549) of over 10000 nM.

For `C/C1=C\C(=O)OC[C@@]23CC[C@](C)(O)[C@H]4C[C@@]5(O)[C@@H](C[C@@H](OC(=O)/C=C\C=C\[C@H]([C@@H](C)O)OCC1)[C@]25C)O[C@H]43`, the IC50 ([1]; Homo sapiens, HCC70, 72 h) was over 10000 nM, the IC50 ([2]; Homo sapiens, MDA-MB-231, 72 h) was over 10000 nM and the IC50 ([3]; Homo sapiens, MDA-MB-468, 72 h) was over 10000 nM. The IC50 ([4]; Homo sapiens, BT-549, 72 h) was over 10000 nM.

In the case of `COC(=O)/C=C/C=C/[C@@H](OCC/C(C)=C/C(=O)OC[C@]12CCC(C)=C[C@H]1O[C@@H]1C[C@@H](O)[C@@]2(C)[C@@]12CO2)[C@@H](C)O`, the IC50 ([1]; hcc70) is reported as over 10000 nM, the IC50 ([2]; mda-mb-231) is reported as over 10000 nM and the IC50 ([3]; mda-mb-468) is reported as over 10000 nM. The IC50 ([4]; bt-549) was over 10000 nM.

`CC1=C[C@H]2O[C@@H]3C[C@@H](OC(=O)/C=C\C=C\[C@]4([C@H](C)O)OCC/C(=C\C(=O)O)[C@@H]4O)[C@](C)([C@@]2(CO)CC1)[C@@]31CO1` was tested, and the IC50 ([1]; hcc70) was 7700 nM, the IC50 ([2]; mda-mb-231) was 3600 nM and the IC50 ([3]; mda-mb-468) was over 10000 nM. It also gave an IC50 ([4]; bt-549) of 1800 nM.

`CC1=C[C@H]2O[C@@H]3C[C@@H](OC(=O)/C=C\C=C\[C@@H](OCCC4=CC(=O)OC4)[C@@H](C)O)[C@](C)([C@@]2(COC(=O)/C=C(\C)CCO)CC1)[C@@]31CO1` showed an IC50 ([1]; hcc70) of 20 nM, an IC50 ([2]; mda-mb-231) of 20 nM and an IC50 ([3]; mda-mb-468) of 80 nM. For the same compound, the IC50 ([4]; bt-549) was 4 nM.
